In US11773062B2, “Deuterated compounds” (priority 2021, dated 2023):
Like-named read-outs stand apart in the source and are kept apart here.

Columns and labels:
[1] = in vivo; cited from earlier work
[2] = Human liver mitochondrial fraction intrinsic clearance of SPL026, SPL028i, SPL028iii, SPL028viii; assay type: in vitro ADME; details: 0.5 mg/mL human liver mitochondrial fraction (Table 10)
Excerpt: (§1) Human Liver Mitochondrial (HLMt) fractions contain high quantities of MAO enzymes and therefore, provide a useful tool to measure the clearance of MAO substrates.

CYP1A2 = target: T1, CYP1A2 (Homo sapiens, UniProt P05177); assay: in vitro
T1 sequence (P05177 1-516): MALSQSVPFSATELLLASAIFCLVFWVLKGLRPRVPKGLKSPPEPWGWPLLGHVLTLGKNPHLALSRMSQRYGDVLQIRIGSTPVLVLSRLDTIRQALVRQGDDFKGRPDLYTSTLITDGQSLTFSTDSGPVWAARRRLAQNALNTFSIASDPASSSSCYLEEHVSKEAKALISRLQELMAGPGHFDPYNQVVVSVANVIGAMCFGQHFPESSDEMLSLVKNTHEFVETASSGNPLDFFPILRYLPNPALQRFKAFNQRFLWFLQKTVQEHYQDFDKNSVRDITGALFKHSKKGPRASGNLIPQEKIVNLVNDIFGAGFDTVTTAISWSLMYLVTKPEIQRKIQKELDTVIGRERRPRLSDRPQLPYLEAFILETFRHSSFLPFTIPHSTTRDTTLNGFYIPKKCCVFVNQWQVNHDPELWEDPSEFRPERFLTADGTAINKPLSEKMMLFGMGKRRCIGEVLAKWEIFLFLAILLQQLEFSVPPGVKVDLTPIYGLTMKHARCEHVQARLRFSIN
Protocol: (§2) Samples were taken at predetermined time points.
(§3) Samples were then centrifuged at −4° C.
(§4) Positive control markers are as specified in Table 11.

CYP2B6 = target: T2, CYP2B6 (Homo sapiens, UniProt P20813); assay: in vitro
T2 sequence (P20813 1-491): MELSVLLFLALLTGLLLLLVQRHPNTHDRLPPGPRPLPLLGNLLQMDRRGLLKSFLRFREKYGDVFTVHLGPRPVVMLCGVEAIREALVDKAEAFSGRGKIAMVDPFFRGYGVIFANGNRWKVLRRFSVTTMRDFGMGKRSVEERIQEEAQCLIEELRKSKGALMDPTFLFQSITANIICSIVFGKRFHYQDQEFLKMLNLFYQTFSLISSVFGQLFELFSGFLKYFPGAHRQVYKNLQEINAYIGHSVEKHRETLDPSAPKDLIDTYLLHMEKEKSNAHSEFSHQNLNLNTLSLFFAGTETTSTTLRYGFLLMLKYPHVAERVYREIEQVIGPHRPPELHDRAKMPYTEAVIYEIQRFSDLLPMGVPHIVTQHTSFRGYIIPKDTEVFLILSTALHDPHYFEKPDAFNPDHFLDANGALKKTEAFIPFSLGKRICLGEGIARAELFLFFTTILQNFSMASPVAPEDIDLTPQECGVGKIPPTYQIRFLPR
Protocol: as §2, §3, §4

CYP2C8 = target: T3, CYP2C8 (Homo sapiens, UniProt P10632); assay: in vitro
T3 sequence (P10632 1-490): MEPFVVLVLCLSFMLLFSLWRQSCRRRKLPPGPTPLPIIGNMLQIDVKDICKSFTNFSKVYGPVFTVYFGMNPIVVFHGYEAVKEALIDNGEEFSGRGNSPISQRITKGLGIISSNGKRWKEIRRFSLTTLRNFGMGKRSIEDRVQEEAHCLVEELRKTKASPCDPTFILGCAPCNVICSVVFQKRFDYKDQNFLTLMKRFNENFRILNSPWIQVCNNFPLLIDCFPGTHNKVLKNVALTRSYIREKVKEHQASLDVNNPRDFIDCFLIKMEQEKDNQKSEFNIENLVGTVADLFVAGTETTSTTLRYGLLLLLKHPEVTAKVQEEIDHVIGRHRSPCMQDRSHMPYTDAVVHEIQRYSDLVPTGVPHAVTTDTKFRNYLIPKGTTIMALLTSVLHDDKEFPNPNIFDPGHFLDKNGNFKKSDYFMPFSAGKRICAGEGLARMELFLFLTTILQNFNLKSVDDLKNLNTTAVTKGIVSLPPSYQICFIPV
Protocol: as §2, §3, §4

CYP3A5 = CYP3A5 (Homo sapiens, UniProt P20815); assay: in vitro
CYP3A5, sequence (P20815 whole entry): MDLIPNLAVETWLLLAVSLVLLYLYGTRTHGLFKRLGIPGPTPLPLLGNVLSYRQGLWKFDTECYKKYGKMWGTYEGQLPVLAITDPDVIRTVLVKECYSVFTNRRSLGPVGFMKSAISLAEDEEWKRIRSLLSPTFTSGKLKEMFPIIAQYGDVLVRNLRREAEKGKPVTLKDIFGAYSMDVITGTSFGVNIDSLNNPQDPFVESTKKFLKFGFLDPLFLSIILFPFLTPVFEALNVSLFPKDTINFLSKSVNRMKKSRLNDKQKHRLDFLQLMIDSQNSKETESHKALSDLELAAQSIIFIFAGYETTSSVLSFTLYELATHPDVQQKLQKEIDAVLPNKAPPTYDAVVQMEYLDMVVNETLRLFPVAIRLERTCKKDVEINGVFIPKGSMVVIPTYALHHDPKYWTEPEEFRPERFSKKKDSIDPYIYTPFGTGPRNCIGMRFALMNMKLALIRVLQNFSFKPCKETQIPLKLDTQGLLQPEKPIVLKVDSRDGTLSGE
Protocol: as §2, §3, §4

CYP2C19 = CYP2C19 (Homo sapiens, UniProt P33261); assay: CYP phenotyping, CYP bactosomes; details: for substrate for CYP2C19: CYP phenotyping; for projected scaled intrinsic clearance, CYP isoform 2C19: scaled by estimated CYP abundance in human liver microsomes (0.009 nmol CYP/mg)
CYP2C19, sequence (P33261 whole entry, canonical isoform): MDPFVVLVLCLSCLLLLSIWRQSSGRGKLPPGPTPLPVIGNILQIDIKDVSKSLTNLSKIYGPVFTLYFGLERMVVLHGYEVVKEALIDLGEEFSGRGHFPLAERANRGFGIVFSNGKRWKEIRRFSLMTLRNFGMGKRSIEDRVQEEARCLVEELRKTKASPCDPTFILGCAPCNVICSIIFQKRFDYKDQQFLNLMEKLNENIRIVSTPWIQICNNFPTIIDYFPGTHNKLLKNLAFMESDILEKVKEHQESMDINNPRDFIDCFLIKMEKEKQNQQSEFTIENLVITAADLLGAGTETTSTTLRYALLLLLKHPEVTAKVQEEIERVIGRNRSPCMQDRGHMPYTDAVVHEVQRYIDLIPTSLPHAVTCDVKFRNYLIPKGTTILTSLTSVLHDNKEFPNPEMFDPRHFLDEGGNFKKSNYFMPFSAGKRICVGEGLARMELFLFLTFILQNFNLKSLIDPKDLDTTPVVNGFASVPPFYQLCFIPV
Protocol: as §2, §3, §4

CYP2C9 = CYP2C9 (Homo sapiens, UniProt P11712); assay: CYP phenotyping, CYP bactosomes
CYP2C9, sequence (P11712 whole entry): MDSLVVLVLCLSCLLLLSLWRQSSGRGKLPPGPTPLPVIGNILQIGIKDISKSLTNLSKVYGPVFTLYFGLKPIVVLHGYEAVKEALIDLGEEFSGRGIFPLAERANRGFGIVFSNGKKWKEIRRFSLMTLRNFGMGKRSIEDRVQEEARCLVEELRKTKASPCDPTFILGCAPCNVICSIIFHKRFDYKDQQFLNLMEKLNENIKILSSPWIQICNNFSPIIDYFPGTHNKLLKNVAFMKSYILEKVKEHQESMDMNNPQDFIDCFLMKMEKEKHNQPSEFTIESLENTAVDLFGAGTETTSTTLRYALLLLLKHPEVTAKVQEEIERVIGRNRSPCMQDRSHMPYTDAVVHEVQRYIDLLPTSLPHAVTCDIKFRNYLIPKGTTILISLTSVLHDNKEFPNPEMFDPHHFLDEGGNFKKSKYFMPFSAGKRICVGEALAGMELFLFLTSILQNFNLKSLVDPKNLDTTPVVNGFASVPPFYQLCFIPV
Protocol: as §2, §3, §4

CYP3A4 = CYP3A4 (Homo sapiens, UniProt P08684); assay: CYP phenotyping, CYP bactosomes
CYP3A4, sequence (P08684 whole entry): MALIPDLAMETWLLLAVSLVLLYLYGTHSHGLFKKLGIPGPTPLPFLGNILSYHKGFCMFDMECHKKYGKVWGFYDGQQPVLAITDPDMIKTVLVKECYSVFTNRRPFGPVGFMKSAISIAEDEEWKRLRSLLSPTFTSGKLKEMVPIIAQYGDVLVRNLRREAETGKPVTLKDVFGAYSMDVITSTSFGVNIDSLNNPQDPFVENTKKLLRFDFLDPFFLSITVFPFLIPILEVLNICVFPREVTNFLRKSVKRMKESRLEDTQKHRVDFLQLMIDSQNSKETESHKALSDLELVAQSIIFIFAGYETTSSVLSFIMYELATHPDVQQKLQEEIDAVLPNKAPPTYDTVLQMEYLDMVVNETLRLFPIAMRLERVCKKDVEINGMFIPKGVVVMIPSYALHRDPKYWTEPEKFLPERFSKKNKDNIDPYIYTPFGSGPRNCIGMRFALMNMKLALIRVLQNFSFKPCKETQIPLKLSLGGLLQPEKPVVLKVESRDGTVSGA
Protocol: as §2, §3, §4

CYP2D6 [3] = target: T4, CYP2D6 (Homo sapiens, UniProt P10635); details: for intrinsic clearance, CYP isoform 2D6: human, recombinant enzyme, pH 7.4
T4 sequence (P10635 whole entry, canonical isoform): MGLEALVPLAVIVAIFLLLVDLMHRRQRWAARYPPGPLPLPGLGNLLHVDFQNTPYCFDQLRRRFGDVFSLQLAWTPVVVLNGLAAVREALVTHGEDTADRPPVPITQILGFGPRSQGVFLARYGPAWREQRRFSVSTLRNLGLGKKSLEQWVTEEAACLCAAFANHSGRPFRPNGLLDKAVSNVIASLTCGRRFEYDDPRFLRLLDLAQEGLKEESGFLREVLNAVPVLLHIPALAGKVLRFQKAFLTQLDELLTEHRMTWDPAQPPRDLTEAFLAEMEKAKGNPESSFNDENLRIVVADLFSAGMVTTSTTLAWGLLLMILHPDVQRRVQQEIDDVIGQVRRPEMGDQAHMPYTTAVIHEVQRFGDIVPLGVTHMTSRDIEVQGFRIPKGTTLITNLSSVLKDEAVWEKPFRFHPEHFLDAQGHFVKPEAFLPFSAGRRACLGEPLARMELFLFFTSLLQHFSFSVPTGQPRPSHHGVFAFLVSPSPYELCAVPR
Protocol: (§5) The CYPs used in this study are heterologously expressed in E. coli and purchased as individualised forms (CYP bactosomes) from CYPEX. Bactosomes contain recombinant CYP isoenzymes combined with CYP reductase leading to a higher specific activity than liver microsomes.
(§6) Phosphate buffer is prepared at 0.1 M, pH 7.4 by combining 0.1 M Na2HPO4 and 0.1 M KH2PO4 solutions.
(§7) Nicotinamide adenine dinucleotide 2′-phosphate reduced tetrasodium salt hydrate (NADPH) is prepared at 10 m<in 0.1 M phosphate buffer (pH 7.4).
(§8) The individual CYP bactosomes are thawed at room temperature undiluted to 200 pmol/mL and 0.1 M phosphate buffer.
(§9) Standard final incubation conditions are 1-3 μM compound in a buffer containing 100 pmol/mL CYP bactosome, 1% (v/v) DMSO.
(§10) The elimination rate constant (k) is calculated using the slope of a ln (MS peak area or response—if internal standard is used) vs. time plot of the test compounds and markers.
(§11) Intrinsic clearance in μL/min/nmol CYP is calculated using the following equation: Clint=−1000 k/CYP concentration
(§12) Projected CYP isoform intrinsic clearance accounting for estimated CYP abundance in human liver microsomes (μL/min/mg microsomal protein)* is calculated using the following equation: Projected set isoform intrinsic clearance=Estimated CYP abundance*Clint * Estimated CYP abundance is taken as an average from three literature references 1, 2 3 and the abundances used are as follows (nmol CYP/mg Human Liver Microsomal Protein):

CYP2D6 [4] = target: T4, CYP2D6; assay: CYP phenotyping, CYP bactosomes; details: for substrate for CYP2D6: CYP phenotyping
Protocol: as §5, §6, §7, §8, §9, §10, §11, §12

[5] = test system: mouse (male CD-1) hepatocytes; assay: In vitro mouse hepatocytic intrinsic clearance; details: mouse CD-1 hepatocytes 0.367 million cells/mL, 5 μM (Table 8)
[6] = test system: human (mixed gender) hepatocytes; assay: In vitro intrinsic clearance in human hepatocytes with and without MAO-A/B inhibitor combination (first experiment); details: for % change in half-life, MAO inhibitors vs no inhibitors / % change in intrinsic clearance, MAO inhibitors vs no inhibitors: human hepatocytes (Table 5)
Protocol: Standard final incubation conditions are 1 μM compound in buffer containing nominally ˜0.5 million viable cells/mL, ˜0.9% (v/v) acetonitrile (MeCN) and ˜0.1% (v/v) DMSO (specific assay concentrations outlined above, section 2).
Samples are then centrifuged at 4° C.

CYP2D6 [7] = target: T4, CYP2D6; assay: in vitro; details: recombinant enzyme, pH 7.4
Protocol: as §5, §6, §7, §8, §9, §10, §11, §12

[8] = Human liver mitochondrial fraction intrinsic clearance of SPL026 with/without MAO-A and MAO-B inhibitors; assay type: in vitro ADME
Excerpt: as §1

[9] = In vitro mouse hepatocytic intrinsic clearance; details: male, CD-1, mouse, hepatocytes
[10] = E. coli CYPEX membranes, 100 pmol/mL CYP
[11] = human hepatocytes, with 100 nM clorgyline + 100 nM deprenyl/selegiline (Table 3)
[12] = human hepatocytes, with MAO-A/B inhibitor combination (Table 5)
[13] = human hepatocytes, with MAO-A/B inhibitors (Table 4; unit given only in Table 5)
[14] = human hepatocytes, with vs without MAO inhibitors
[15] = human hepatocytes, without MAO-A/B inhibitor combination (Table 5)
[16] = human, recombinant enzyme, pH 7.4
[17] = human liver mitochondrial fraction, Deprenyl (MAO-B inhibitor) 100 nM

| SMILES | intrinsic clearance, CYP isoform 1A2 (CYP1A2; [10]) | intrinsic clearance, CYP isoform 2B6 (CYP2B6; [10]) | intrinsic clearance, CYP isoform 2C8 (CYP2C8; [10]) | intrinsic clearance, CYP isoform 3A5 (CYP3A5; [10]) | substrate for CYP2C19 (CYP2C19) | intrinsic clearance, CYP isoform 2C19 (CYP2C19; [10]) | projected scaled intrinsic clearance, CYP isoform 2C19 (CYP2C19) | intrinsic clearance, CYP isoform 2C9 (CYP2C9; [10]) | intrinsic clearance, CYP isoform 3A4 (CYP3A4; [10]) | projected scaled intrinsic clearance, CYP isoform 2D6 (CYP2D6 [3]) | substrate for CYP2D6 (CYP2D6 [4]) | intrinsic clearance, CYP isoform 2D6 (CYP2D6 [4]; [10]) | % change in half-life, MAO inhibitors vs no inhibitors [6] | % change in intrinsic clearance, MAO inhibitors vs no inhibitors [6] | Intrinsic clearance, with inhibitors [6, 11] | Half-life, with inhibitors [6, 12] | Intrinsic clearance, with inhibitors [6, 12] | Half-life, with inhibitors [6, 13] | Intrinsic clearance, without inhibitors [6, 15] | half-life (CYP2D6 [7]) | also measured |
| --- | --- | --- | --- | --- | --- | --- | --- | --- | --- | --- | --- | --- | --- | --- | --- | --- | --- | --- | --- | --- | --- |
| [2H]C([2H])(c1c[nH]c2ccccc12)C([2H])([2H])N(C)C [D4DMT, α,α,β,β-tetradeutero-N,N-dimethyltryptamine] | – | – | – | – | – | – | – | – | – | – | – | – | – | – | – | – | – | – | – | – | behavioural effect compared to equal doses of DMT [1]: shorter time to onset and potentiation of behaviour disrupting effects |
| [2H]C([2H])(Cc1c[nH]c2ccccc12)N(C)C [SPL028i, α,α,-bis-deuterium-N,N-dimethyltryptamine] | <29 μL/min/nmol CYP | <29 μL/min/nmol CYP | <29 μL/min/nmol CYP | <29 μL/min/nmol CYP | substrates | 39 μL/min/nmol CYP | 0.3 μl/min/mg microsomal protein | <29 μL/min/nmol CYP | <29 μL/min/nmol CYP | 9.4 μl/min/mg microsomal protein | substrates | 793 μL/min/nmol CYP | −5.33% | 4.67% | 7.50 μL/min/million cells | 2.8292 h | 7.5 μL/min/million cells | 2.8292 h | 7.15 μL/min/million cells | – | Intrinsic Clearance [2]: 44.6 μL/min/mg protein; half-life, CYP isoform 1A2 (CYP1A2; [10]): >4 h; half-life, CYP isoform 2B6 (CYP2B6; [10]): >4 h; half-life, CYP isoform 2C8 (CYP2C8; [10]): >4 h; half-life, CYP isoform 3A5 (CYP3A5; [10]): >4 h; half-life, CYP isoform 2C19 (CYP2C19; [10]): 3 h; half-life, CYP isoform 2C9 (CYP2C9; [10]): >4 h; half-life, CYP isoform 3A4 (CYP3A4; [10]): >4 h; half-life, CYP isoform 2D6 (CYP2D6 [4]; [10]): 9 min; w Half-life [5]: 0.323 h; w Intrinsic clearance [5]: 97.4 μL/min/million cells; quicker intrinsic clearance in the presence of MAO inhibitors [6, 14]: ~5% |
| COc1ccc2c(c1)[C@]13CCCC[C@@H]1[C@H](C2)N(C)CC3 [Dextromethorphan] | – | – | – | – | – | – | – | – | – | – | – | – | – | – | – | – | – | – | – | 3 min | intrinsic clearance, CYP isoform 2D6 (CYP2D6 [3]): 2686 μL/min/nmol CYP |
| COc1ccccc1OCCNCC(O)COc1cccc2[nH]c3ccccc3c12 (stereo not drawn) [Carvedilol, reference compound] | – | – | – | – | – | – | – | – | – | – | – | – | – | – | – | – | – | – | – | 2 min | half-life (CYP1A2; [16]): 0.5 h; intrinsic clearance, CYP isoform 1A2 (CYP1A2; [16]): 231 μL/min/nmol CYP; half-life (CYP2C19; [16]): 0.217 h; intrinsic clearance, CYP isoform 2C19 (CYP2C19; [16]): 526 μL/min/nmol CYP; half-life (CYP2C9; [16]): 2.23 h; intrinsic clearance, CYP isoform 2C9 (CYP2C9; [16]): 52 μL/min/nmol CYP; half-life (CYP3A4; [16]): 0.817 h; intrinsic clearance, CYP isoform 3A4 (CYP3A4; [16]): 142 μL/min/nmol CYP; intrinsic clearance, CYP isoform 2D6 (CYP2D6 [3]): 4483 μL/min/nmol CYP |
| CN(C)CCc1c[nH]c2ccccc12 [SPL026, N,N-dimethyltryptamine, reference compound] | <29 μL/min/nmol CYP | <29 μL/min/nmol CYP | <29 μL/min/nmol CYP | <29 μL/min/nmol CYP | substrates | 37 μL/min/nmol CYP | 0.3 μl/min/mg microsomal protein | <29 μL/min/nmol CYP | <29 μL/min/nmol CYP | 9.5 μl/min/mg microsomal protein | substrates | 801 μL/min/nmol CYP | 3.82% | −4.00% | 13.24 μL/min/million cells | 1.601 h | 13.24 μL/min/million cells | 1.601 h | 13.77 μL/min/million cells | 9 min | half-life ([8]; 0.5 mg/mL human liver mitochondrial fraction, DMSO Vehicle (no inhibitor)): 0.562 h; half-life ([8]; human liver mitochondrial fraction, Clorgyline (MAO-A inhibitor) 100 nM): >6.228 h; Intrinsic Clearance [8, 17]: 42.7 μL/min/mg protein; half-life [8, 17]: 0.542 h; half-life [2]: 8.6 min; half-life (CYP1A2; [16]): > 4 h; half-life (CYP2B6; [16]): > 4 h; half-life (CYP2C8; [16]): > 4 h; half-life (CYP3A5; [16]): > 4 h; half-life (CYP2C19; [16]): 3.15 h; half-life (CYP2C9; [16]): > 4 h; half-life (CYP3A4; [16]): > 4 h; half-life at 5 μM [9]: 0.255 h; hepatocyte CLint at 5 μM [9]: 124 µL/min/1e6 cells; slower intrinsic clearance with inclusion of MAO inhibitors [6, 14]: ~4%; Half-life, without inhibitors ([6]; human hepatocytes, without MAO inhibitors (Table 4; unit given only in Table 5)): 1.54 h; Half-life, without inhibitors [6, 15]: 1.54 h |
